This note sets out measurements from PubChem BioAssay AID2740 (NMMLSC, 2010).

This assay can be described thus: TOR pathway RPL19A-GFP modulators, concentration series – cell-based, S. cerevisiae, flow cytometry, MLPCN hits, dose response (AID 2740).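 Note: background is signal of the same compound in parental non-GFP s288c yeast.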 The following applies: S. cerevisiae RPL19A-GFP strain, flow cytometry fluorescence, 3 h; at 33 µM (top of the series). In general terms: A flow cytometer gives signals particle by particle.

Calls of active or inactive are those of the source.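 Rule for the calls: active = compounds whose fitted half-maximal concentration for changing the GFP signal is at or below a set limit; inactive = the rest.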

For `CCc1ccc(C(=O)/C=C/c2ccc([N+](=O)[O-])o2)cc1`, the GFP fluorescence, lower = active (kMESF (background-subtracted)) is 48.7 (inactive).

For the compound `CC(=O)Oc1oc(-c2ccccc2)nc1C=Nc1ccc(N(C)C)cc1`, the GFP fluorescence, lower = active (kMESF (background-subtracted)) was 41.6 (inactive).

As for `CC(=O)CSc1ncnc2c1cnn2-c1ccccc1`, the GFP fluorescence, lower = active (kMESF (background-subtracted)) was 37.7 (inactive).

With `COc1cccc(N=Nc2ccc(O)c3ncccc23)c1`, the GFP fluorescence, lower = active (kMESF (background-subtracted)) was 50.7 (inactive).

On to `COC(=O)CCC(=O)OC1(C)C(=O)C2=COC(c3ccc(OC)cc3)=CC2=C(Br)C1=O` (centres undefined), for which the GFP fluorescence, lower = active (kMESF (background-subtracted)) was 32.8 (inactive).

On to `O=C1C=CC(=O)N1N(c1ccccc1)c1ccccc1`, for which the GFP fluorescence, lower = active (kMESF (background-subtracted)) is 23.9 (inactive).

`O=C1ON=C(c2ccccc2)/C1=C\c1ccco1`: the GFP fluorescence, lower = active (kMESF (background-subtracted)) was 28.9 (inactive).

`N/C(=N\OC(=O)c1ccccc1Cl)c1ccc(Cl)cc1`: the GFP fluorescence, lower = active (kMESF (background-subtracted)) is 38.2 (inactive).

Regarding `Cc1ccc(/C=C2\C(=O)NC(=S)N(c3ccc(F)cc3)C2=O)s1`, the GFP fluorescence, lower = active (kMESF (background-subtracted)) was 38 (inactive).

As to `CC(=O)N(\C=C/C=C/C=C1\Sc2ccccc2C1=O)c1ccccc1`, the GFP fluorescence, lower = active (kMESF (background-subtracted)) is 56.1 (inactive).

Take `CCN(CC)c1ccc(/C=C2\C(=O)c3ccc(C(=O)O)cc3C2=O)cc1`: the GFP fluorescence, lower = active (kMESF (background-subtracted)) was 51.5 (inactive).

As to `COc1cc(/C=C2\C(=O)ON=C2c2ccccc2)cc(Br)c1O`, the GFP fluorescence, lower = active (kMESF (background-subtracted)) is 37.3 (inactive).

For the compound `COc1cc(/C=C2/C(=O)c3cccc([N+](=O)[O-])c3C2=O)c(Br)cc1O`, the GFP fluorescence, lower = active (kMESF (background-subtracted)) is 43.9 (inactive).

Turning to `O=C(C#Cc1cccc([N+](=O)[O-])c1)c1ccccc1`, the GFP fluorescence, lower = active (kMESF (background-subtracted)) is 41.3 (inactive).

Regarding `Oc1c(Br)cc(Br)cc1C=Nc1ccc2c(c1)OCO2`, the GFP fluorescence, lower = active (kMESF (background-subtracted)) was 40 (inactive).

`Cc1ccc(C(=O)Oc2oc(-c3ccccc3)nc2C=Nc2ccc(N(C)C)cc2)cc1`: the GFP fluorescence, lower = active (kMESF (background-subtracted)) is 38.8 (inactive).

For the compound `O=C(c1ccc([N+](=O)[O-])o1)N1CCN(c2nc3c(F)cc(F)cc3s2)CC1`, the GFP fluorescence, lower = active (kMESF (background-subtracted)) is 31.7 (inactive).

Turning to `N=C1S/C(=C\c2ccco2)C(=O)N1c1nccs1`, the GFP fluorescence, lower = active (kMESF (background-subtracted)) was 47.2 (inactive).

As to `CN(C)C(=O)Oc1ccnc2cc(Cl)ccc12`, the GFP fluorescence, lower = active (kMESF (background-subtracted)) is 38.2 (inactive).

For the compound `On1ccccc1=S`, the GFP fluorescence, lower = active (kMESF (background-subtracted)) was 38 (inactive).

As for `CC1(C)OC(c2ccccc2)=C/C(=C/C=C2C(=O)NC(=S)NC2=O)O1`, the GFP fluorescence, lower = active (kMESF (background-subtracted)) is 37 (inactive).

Turning to `CCCCc1ccc(/C=C2/C(=O)ON=C2c2ccccc2)s1`, the GFP fluorescence, lower = active (kMESF (background-subtracted)) was 44.1 (inactive).

On to `COc1cccc(/C=C2\SC(=S)N(CCCC(=O)Nc3ccc(C(=O)O)cc3)C2=O)c1`, for which the GFP fluorescence, lower = active (kMESF (background-subtracted)) is 38.2 (inactive).

Regarding `O=C(/C=C/c1ccc(Cl)c([N+](=O)[O-])c1)c1cccnc1`, the GFP fluorescence, lower = active (kMESF (background-subtracted)) was 36.9 (inactive).

In the case of `Cc1ccccc1[C@@]1(C)ON(c2ccccc2C(F)(F)F)C1=O`, the GFP fluorescence, lower = active (kMESF (background-subtracted)) is 40.6 (inactive).

`O=C(c1ccc(Cl)c([N+](=O)[O-])c1)N1CCN(c2ccccc2)CC1`: the GFP fluorescence, lower = active (kMESF (background-subtracted)) was 46.4 (inactive).

As to `O=C1C(=O)c2ccccc2-c2ccccc21`, the GFP fluorescence, lower = active (kMESF (background-subtracted)) is 17.7 (inactive).

With `CCc1nc2ccccc2c(=O)n1NC(=O)c1c(O)c2cccc3c2n(c1=O)CCC3`, the GFP fluorescence, lower = active (kMESF (background-subtracted)) was 25.5 (inactive).

Regarding `Oc1ccc2ccccc2c1N=Nc1nccs1`, the GFP fluorescence, lower = active (kMESF (background-subtracted)) is 51 (inactive).

As for `O=C(/C=C/c1ccc(F)cc1)NC(=S)NNC(=O)c1cnccn1`, the GFP fluorescence, lower = active (kMESF (background-subtracted)) was 36.8 (inactive).

In the case of `COc1ccccc1N=Nc1ccc(O)c2ncccc12`, the GFP fluorescence, lower = active (kMESF (background-subtracted)) is 32.6 (inactive).

Regarding `Cc1ccccc1N1C(=O)C(Cl)=C(N2CCN(c3ccccc3)CC2)C1=O`, the GFP fluorescence, lower = active (kMESF (background-subtracted)) was 39.3 (inactive).

Consider `COc1cccc(/C=C/C(=O)c2c(O)cc(C)oc2=O)c1O`, for which the GFP fluorescence, lower = active (kMESF (background-subtracted)) is 40.4 (inactive).

With `CCCCC(=O)NNC(=S)NC(=O)c1ccc(C)cc1`, the GFP fluorescence, lower = active (kMESF (background-subtracted)) was 42.3 (inactive).

Turning to `O=C(O)c1ccc(COc2ccccc2C=C2C(=O)c3ccccc3C2=O)cc1`, the GFP fluorescence, lower = active (kMESF (background-subtracted)) is 38.9 (inactive).

Take `COc1ccc(OCC(=O)NNC(=S)NC(=O)C2CCCCC2)cc1`: the GFP fluorescence, lower = active (kMESF (background-subtracted)) was 38 (inactive).

With `Cc1[nH]c2ccccc2c1C(=O)COC(=O)c1ccc([N+](=O)[O-])s1`, the GFP fluorescence, lower = active (kMESF (background-subtracted)) was 13.6 (inactive).

As to `O=C(NCc1ccc2c(c1)OCO2)c1nc(S(=O)(=O)Cc2ccccc2)ncc1Cl`, the GFP fluorescence, lower = active (kMESF (background-subtracted)) was 43.5 (inactive).

With `O=C(NC(=S)NNC(=O)c1cnccn1)c1ccc(Cl)cc1`, the GFP fluorescence, lower = active (kMESF (background-subtracted)) was 48.5 (inactive).

Regarding `COc1ccccc1OCCCc1c(C)n[nH]c1C`, the GFP fluorescence, lower = active (kMESF (background-subtracted)) is 37.6 (inactive).

For the compound `Cc1nc2ccc(NC(=O)c3oc4ccc(F)cc4c3C)cc2s1`, the GFP fluorescence, lower = active (kMESF (background-subtracted)) is 39 (inactive).

As for `CN(C)c1ccc(/C=C/c2cc[n+](C)cc2)cc1`, the GFP fluorescence, lower = active (kMESF (background-subtracted)) was 44.5 (inactive).

For `COC(CNC(=O)c1ccc2c3c(onc13)-c1ccccc1C2=O)OC`, the GFP fluorescence, lower = active (kMESF (background-subtracted)) is 14.8 (inactive).

On to `C=CCN1C(=O)/C(=C/c2cccs2)C(=O)NC1=S`, for which the GFP fluorescence, lower = active (kMESF (background-subtracted)) is 15.8 (inactive).

In the case of `CCCc1nnc(NC(=O)c2c(O)c3cccc4c3n(c2=O)CCC4)s1`, the GFP fluorescence, lower = active (kMESF (background-subtracted)) is 14.6 (inactive).

Regarding `O=C(CCS(=O)(=O)c1ccccc1)Nc1nc(-c2ccccn2)cs1`, the GFP fluorescence, lower = active (kMESF (background-subtracted)) is 37.8 (inactive).

With `COc1cc(SSc2cc(OC)cc([N+](=O)[O-])c2N)c(N)c([N+](=O)[O-])c1`, the GFP fluorescence, lower = active (kMESF (background-subtracted)) was 32.6 (inactive).

As for `Fc1cccc(Nc2ncnc3c2cnn3-c2ccccc2)c1`, the GFP fluorescence, lower = active (kMESF (background-subtracted)) is 35.1 (inactive).

Turning to `C=CCOc1ccccc1C(=O)/C=C1/C(=O)Nc2ccccc21`, the GFP fluorescence, lower = active (kMESF (background-subtracted)) is 41.5 (inactive).

For the compound `O=C(NNC(=S)NC(=O)c1ccco1)c1ccc(F)cc1`, the GFP fluorescence, lower = active (kMESF (background-subtracted)) is 49.8 (inactive).

As to `Oc1ccc2ccccc2c1/C=N/Nc1nnc(-c2ncc[nH]2)c2ccccc12`, the GFP fluorescence, lower = active (kMESF (background-subtracted)) was 4.23 (inactive).

With `O=C1ON=C(c2ccccc2)/C1=C/c1ccc(-c2ccccc2[N+](=O)[O-])o1`, the GFP fluorescence, lower = active (kMESF (background-subtracted)) was 25.3 (inactive).

Consider `Cc1ccc(S(=O)(=O)N2CCCC2C(=O)NCc2ccncc2)cc1` (centres undefined), for which the GFP fluorescence, lower = active (kMESF (background-subtracted)) is 39.8 (inactive).

Consider `Cc1ccc2c(c1)c(/C=C/c1cc[n+](C)cc1)c(C)n2C`, for which the GFP fluorescence, lower = active (kMESF (background-subtracted)) was 40.7 (inactive).
